Values after ≈ are worked out from the molar mass of the structure shown. Read-outs that look alike come from different tables or passages of the source.

We go through five compounds from patent US10954201B2, “Two-electron donating phenothiazines and use thereof” (University of Kentucky Research Foundation, priority 2016, dated 2021).

Series [1] is described as follows: Oxidation potentials vs. ferrocenium/ferrocene in 0.5M TEATFSI/acetonitrile. In kind it is physicochemical. From the text:
With regard to Compound IV, oxidation potentials are 0.035 V and 0.625 V vs. ferrocenium/ferrocene in 0.5M TEATFSI/acetonitrile.

For series [2] the following is noted: DBBB formulated as a catholyte; cited from earlier work.
Series [3] is described as follows: Solubility in electrolyte formulations. In kind it is physicochemical. The conditions noted are these: for solubility compared to the N-ethyl derivative: while retaining stable redox chemistry. An excerpt: Additionally, in some embodiments, the N-substituted phenothiazine compounds described herein provide increased solubility in electrolyte formulations as compared to existing compounds, such as 2,5-di-tert-butyl-1,4-bis(2-methoxyethoxy)benzene (DBBB). In one embodiment, the glyme substituents provide increased solubility in electrolyte formulations as compared to other derivatives. […] In another embodiment, this solubility in organic solvents permits the use of renewable earth-abundant elements.
In some embodiments, the N-substituted phenothiazine compounds described herein provide a multi-electron donor including high stability and solubility in catholyte formulations. In another embodiment, the catholyte material provides a multi-electron donor that retains high chemical stability when charged. […] For example, when formulated at its solubility limit, diglyme-dimethoxyphenothiazine may provide approximately 5 times the volumetric energy of DBBB, which has an energy density of 10 Ah/L when formulated as a catholyte, and is limited by its solubility (0.4M) and redox chemistry, acting as a single electron donor.

A short description of series [4]: Cyclic voltammetry, 10 mM analyte in 0.5M LiPF6 in PC (FIG. 1, Table 1). The conditions noted are these: scan rate 100 mV/s. The format is physicochemical. On the procedure: FIG. 1 is a graph showing cyclic voltammograms of DMeOEPT, DMeOMEPT, and DMeOMEEPT, performed with 10 mM analyte in 0.5M LiPF6 in PC at a scan rate of 100 mV/s.

As to `CCN1c2ccc(OCCOCCOC)cc2Sc2cc(OCCOCCOC)ccc21` [Compound IV], in series [1], the “oxidation potential (first) vs. ferrocenium/ferrocene” value worked out at 0.035 V and the “oxidation potential (second) vs. ferrocenium/ferrocene” value is 0.625 V.

As to `COCCOc1cc(C(C)(C)C)c(OCCOC)cc1C(C)(C)C` [DBBB, 2,5-di-tert-butyl-1,4-bis(2-methoxyethoxy)benzene], the solubility (as a rule, how much of the substance goes into solution per volume) in series [2] is recorded as 0.4 M (≈ 135 mg/mL).

For `COCCN1c2ccc(OC)cc2Sc2cc(OC)ccc21` [II, 3,7-dimethoxy-N-methoxyethyl-phenothiazine], the melting point (usually the temperature, or range, at which the solid turns liquid) lay within 108 to 110 °C. The “solubility compared to the N-ethyl derivative” value in series [3] was “higher solubility”. Further, in series [4], the “1st Eox vs. Li (half-wave first oxidation potential)” value (“1st Eox vs. Li” for short) is 3.42 V and the “2nd Eox vs. Li (half-wave second oxidation potential)” value (shortened to “2nd Eox vs. Li”) came to 3.96 V.

On to `CCN1c2ccc(OC)cc2Sc2cc(OC)ccc21` [Compound I, 3,7-dimethoxy-N-ethyl-phenothiazine], for which the melting point lay in the range of 115 to 116 °C. In addition, in series [3], the solubility result is on record as “about 100 mM”. Moreover, in series [4], the “1st Eox vs. Li” value is 3.38 V and the “2nd Eox vs. Li” value was found to be 3.94 V.

Turning to `COCCOCCN1c2ccc(OC)cc2Sc2cc(OC)ccc21` [III, 3,7-dimethoxy-N-((2-methoxy)ethoxy)ethyl-phenothiazine], the “solubility compared to the N-ethyl derivative” value in series [3] is listed as “higher solubility”. For the same compound, in series [4], the “1st Eox vs. Li” value was 3.41 V and the “2nd Eox vs. Li” value was 3.98 V.
